# Reference: patent US20170016875A1, “ANISOTROPIC MUSCULAR TISSUE DEVICES WITH INTEGRATED ELECTRICAL FORCE READOUTS” (President and Fellows of Harvard College, priority 2014, published 2017)
# Tested on: neonatal rat ventricular myocytes (NRVM)
# Experiment: spontaneous beating of NRVM muscle tissue layer on cantilever device, resistance readout
# Format: cell-based
# Settings: after addition of 10 μM isoproterenol; NRVM muscle tissue layer in incubator, resistance versus time (FIG. 12B)
# Procedure: After placement of the wells, neonatal rat ventricular myocytes (NRVM) were seeded at a concentration of 0.3 Mio cells per ml medium, and the contraction of the resulting muscle tissue layers was tested on day 4-5 after seeding. Prior to testing, the cantilevers were released by lowering the sample temperature to room temperature to dissolve the […] sacrificial layer, meaning that the flexible substrate cantilevers were released from the underlying rigid glass substrate after development and growth of the tissue.
smiles,measurement,value
CC(C)NCC(O)c1ccc(O)c(O)c1 (stereo not shown) [isoproterenol],spontaneous beating frequency of the cells,significantly increased
